Source: US10072023B2, “Diarylethene compounds and uses thereof” (SWITCH MATERIALS, INC., priority 2011, dated 2018)

Assay: Absorbance at photostationary state (PSS) under simulated sunlight or 365 nm light
Format: physicochemical
Parameters: λ max: unit not given here
Conditions: for Absorbance at PSS, 365 nm: 365 nm light source; for Absorbance at PSS, 365 nm / Absorbance at PSS, full / Absorbance at PSS, +UV / λ max: 2.0×10^−5 M in triglyme; for sensitivity index: ratio of PSS under 365 nm light to PSS under full spectrum light (without UV blocking film); for Absorbance at PSS, full: simulated sunlight (QSUN solar simulator), no UV blocking film; for Absorbance at PSS, +UV: simulated sunlight with UV blocking film (cutoff 370 nm); for λ max: wavelength of maximum absorbance in the visible range, ring-closed isoform
Procedure: Absorbance at a PSS for selected compounds was measured at 2.0×10^−5 M in triglyme in the absence (full) or presence (+UV) of a UV blocking film with a UV cutoff wavelength of 370 nm (10% transmission at 370 nm), using simulated sunlight (QSUN solar simulator) as a light source, or a 365 nm light source; these PSS are reported in Tables 1.5. […] “Switch” refers to the ability (yes or no) of the compound to be reversibly converted under photochromic and electrochromic conditions between a ring-open isomer and ring-closed isomer.
A sensitivity index (SI) is a ratio of the PSS under 365 nm light to the PSS under full spectrum light (without UV blocking film). SI is an indicator of the sensitivity of the compound to the composition of the incident light (a change in the ratio of UV and visible components)—photochemical ring-opening is induced by a portion of the visible light spectrum.
Photostationary State (PSS) UV/Vis spectra are obtained using an OceanOptics™ Spectrophotometer until absorption in the visible region of the spectrum stabilizes. A 2×10^−5M solution of compound in solvent is prepared, and photofaded using visible light until absorption in the visible region of the spectrum stabilizes. The sample is then irradiated with simulated sunlight (QSUN SS-150 Solar Simulator with xenon arc lamp) until the absorption spectrum stabilizes. To obtain PSS in the presence of a UV blocking film, a second sample is prepared and irradiated as described, with a UV blocking film inserted in the light path when irradiating.

Row | Structure (SMILES) | Absorbance at PSS, 365 nm | sensitivity index | Absorbance at PSS, full | Absorbance at PSS, +UV | λ max
1 | N#Cc1ccc(-c2cc(C3=C(c4cc(-c5ccc(C#N)cc5)sc4-c4ccc(C#N)cc4)C(F)(F)C(F)(F)C3(F)F)c(-c3ccc(C#N)cc3)s2)cc1 [S074, 3,3′-(perfluorocyclopent-1-ene-1,2-diyl)bis(2,5-bis(4-cyanophenyl)thiophene)] | 0.189 | 2.74 | 0.069 | 0.024 | 620
2 | COc1ccc(-c2oc3ccc(OC)cc3c2C2=C(c3c(-c4ccc(OC)cc4)oc4ccc(OC)cc34)C(F)(F)C(F)(F)C2(F)F)cc1 [S083] | 0.167 | 7.26 | 0.023 | 0.008 | 550
3 | Oc1ccc(-c2cc(C3=C(c4cc(-c5ccc(O)cc5)sc4-c4ccc(O)cc4)C(F)(F)C(F)(F)C3(F)F)c(-c3ccc(O)cc3)s2)cc1 [S084, 3,3′-(perfluorocyclopent-1-ene-1,2-diyl)bis(2,5-bis(4-hydroxyphenyl)thiophene)] | 0.23 | 2.56 | 0.09 | 0.051 | 625
4 | COc1ccc(-c2sc(-c3ccc(C#N)cc3)cc2C2=C(c3cc(-c4ccc(C#N)cc4)sc3-c3ccc(OC)cc3)C(F)(F)C(F)(F)C2(F)F)cc1 [S085] | 0.187 | 1.16 | 0.161 | 0.08 | 640
5 | COc1ccc(-c2cc(C3=C(c4cc(-c5ccc(OC)cc5)sc4-c4ccc(C#N)cc4)C(F)(F)C(F)(F)C3(F)F)c(-c3ccc(C#N)cc3)s2)cc1 [S086, 4,4′-(3,3′-(perfluorocyclopent-1-ene-1,2-diyl)bis(5-(4-methoxyphenyl)thiophene-3,2-diyl))dibenzonitrile] | 0.231 | 2.01 | 0.115 | 0.071 | 610
6 | COc1ccc(-c2cc(C3=C(c4cc(-c5ccc(C#N)cc5)sc4-c4ccc(OC)cc4)C(F)(F)C(F)(F)C3(F)F)c(-c3ccc(C#N)cc3)s2)cc1 [S087, 4-(3-(2-(5-(4-cyanophenyl)-2-(4-methoxyphenyl)thiophen-3-yl)-3,3,4,4,5,5-hexafluorocyclopent-1-en-1-yl)-5-(4-methoxyphenyl)thiophen-2-yl)benzonitrile] | 0.209 | 1.92 | 0.109 | 0.055 | 628
7 | COc1ccc(-c2sc(-c3ccc(/C=C/c4ccccc4)cc3)cc2C2=C(c3cc(-c4ccc(/C=C/c5ccccc5)cc4)sc3-c3ccc(OC)cc3)C(F)(F)C(F)(F)C2(F)F)cc1 [S088, (E)-3,3′-(perfluorocyclopent-1-ene-1,2-diyl)bis(2-(4-methoxyphenyl)-5-(4-((E)-styryl)phenyl)thiophene)] | 0.457 | 2.26 | 0.202 | 0.132 | 656
8 | COc1ccc(-c2sc(-c3ccc(/C=C/C=C/c4ccccc4)cc3)cc2C2=C(c3cc(-c4ccc(/C=C/C=C/c5ccccc5)cc4)sc3-c3ccc(OC)cc3)C(F)(F)C(F)(F)C2(F)F)cc1 [S089, 3,3′-(perfluorocyclopent-1-ene-1,2-diyl)bis(2-(4-methoxyphenyl)-5-(4-((1E,3E)-4-phenylbuta-1,3-dien-1-yl)phenyl)thiophene)] | 0.564 | 4.12 | 0.137 | 0.126 | 656
9 | COc1ccc(-c2sc(-c3ccc(OCCOc4ccc(N(c5ccc(Cl)cc5)c5ccc(Cl)cc5)cc4)cc3)cc2C2=C(c3cc(-c4ccc(OCCOc5ccc(N(c6ccc(Cl)cc6)c6ccc(Cl)cc6)cc5)cc4)sc3-c3ccc(OC)cc3)C(F)(F)C(F)(F)C2(F)F)cc1 [S090, 4,4′-(((((4,4′-(perfluorocyclopent-1-ene-1,2-diyl)bis(5-(4-methoxyphenyl)thiophene-4,2-diyl))bis(4,1-phenylene))bis(oxy))bis(ethane-2,1-diyl))bis(oxy))bis(N,N-bis(4-chlorophenyl)aniline)] | 0.183 | 1.71 | 0.107 | 0.058 | 624
10 | CCOc1ccc(-c2cc(C3=C(c4cc(-c5ccc(OCC)cc5)sc4-c4ccc(OCC)cc4)C(F)(F)C(F)(F)C3(F)F)c(-c3ccc(OCC)cc3)s2)cc1 [S091, 3,3′-(perfluorocyclopent-1-ene-1,2-diyl)bis(2,5-bis(4-ethoxyphenyl)thiophene)] | 0.287 | 1.75 | 0.164 | 0.095 | 629
11 | CC(C)Oc1ccc(-c2cc(C3=C(c4cc(-c5ccc(OC(C)C)cc5)sc4-c4ccc(OC(C)C)cc4)C(F)(F)C(F)(F)C3(F)F)c(-c3ccc(OC(C)C)cc3)s2)cc1 [S092, 3,3′-(perfluorocyclopent-1-ene-1,2-diyl)bis(2,5-bis(4-isopropoxyphenyl)thiophene)] | 0.307 | 1.90 | 0.162 | 0.093 | 627
12 | CC(C)(C)COc1ccc(-c2cc(C3=C(c4cc(-c5ccc(OCC(C)(C)C)cc5)sc4-c4ccc(OCC(C)(C)C)cc4)C(F)(F)C(F)(F)C3(F)F)c(-c3ccc(OCC(C)(C)C)cc3)s2)cc1 [S095, 3,3′-(perfluorocyclopent-1-ene-1,2-diyl)bis(2,5-bis(4-(neopentyloxy)phenyl)thiophene)] | 0.279 | 1.74 | 0.16 | 0.086 | 625
13 | COc1cc(OC)cc(-c2cc(C3=C(c4cc(-c5cc(OC)cc(OC)c5)sc4-c4cc(OC)cc(OC)c4)C(F)(F)C(F)(F)C3(F)F)c(-c3cc(OC)cc(OC)c3)s2)c1 [S097, 3,3′-(perfluorocyclopent-1-ene-1,2-diyl)bis(2,5-bis(3,5-dimethoxyphenyl)thiophene)] | 0.206 | 2.82 | 0.073 | 0.029 | 611
14 | COCCOc1ccc(-c2sc(-c3ccc(C(C)(C)C)s3)cc2C2=C(c3cc(-c4ccc(C(C)(C)C)s4)sc3-c3ccc(OCCOC)cc3)C(F)(F)C(F)(F)C2(F)F)cc1 [S104, 4,4″-(perfluorocyclopent-1-ene-1,2-diyl)bis(5′-(tert-butyl)-5-(4-(2-methoxyethoxy)phenyl)-2,2′-bithiophene)] | 0.383 | 1.28 | 0.299 | 0.203 | 645
15 | CC(C)(C)c1ccc(-c2cc(C3=C(c4cc(-c5ccc(C(C)(C)C)s5)sc4-c4ccc(O)cc4)C(F)(F)C(F)(F)C3(F)F)c(-c3ccc(O)cc3)s2)s1 [S105, 4,4′-(4,4″-(perfluorocyclopent-1-ene-1,2-diyl)bis(5′-(tert-butyl)-[2,2′-bithiophene]-5,4-diyl))diphenol] | 0.272 | 1.38 | 0.197 | 0.134 | 647
